Experiments:
[1] = 20%-40% (w/v) hydroxypropyl-cyclodextrin (HP-3-CD) at 37° C.; cited from earlier work
[2] = assay type: physicochemical; conditions: ternary solubilizing composition of Tecovirimat, cyclodextrin and Meglumine
Procedure: An excessive amount of Tecovirimat was added to an aqueous solution comprising meglumine and cyclodextrin at a different ratio to form a suspension. The suspension was placed in a constant-temperature incubation shaker, and was shaken at a temperature of 25±1° C., 37±1° C. and 60±1° C. for 72 h, respectively. After reaching equilibrium, the suspension was filtered through a 0.45 μm hydrophilic filter membrane to obtain a filtrate. After the filtrate was properly diluted with an acetonitrile-water (50:50, v/v) solution, the absorbance was measured at 224 nm, and the solubility of Tecovirimat was calculated. The corresponding solubility curve was plotted by using the solubility of the drug as the ordinate, and using the concentration of cyclodextrin and/or meglumine as the abscissa.

In the case of O=C(NN1C(=O)[C@@H]2[C@@H]3C=C[C@@H]([C@H]4C[C@@H]34)[C@@H]2C1=O)c1ccc(C(F)(F)F)cc1 [Tecovirimat, 4-trifluoromethyl-N-(3,3a,4,4a,5,5a,6,6a-octahydro-1,3-dioxo-4,6-ethenocycloprop[f]isoindol-2(1H)-yl)-benzamide], the solubility [1] is listed as 1.5 to 11 mg/mL and the maximal solubility [2] is listed as “up to 152 mg/ml”.

Reference: patent US11369587B2, “Injectable pharmaceutical composition of tecovirimat and preparation method thereof” (priority 2016, dated 2022)
